Test results as given in publication PMC3830479 (Journal of Experimental Botany, 2013).

How the values were obtained:
OsG6PDH1 [1] = biological target: T1, OsG6PDH1 (Oryza sativa, UniProt Q0DZS9); assay: inhibition of G6PDH activity; assay type: biochemical; conditions: feedback (product) inhibition
T1 construct: gene Os02g0600400; coding region in pET32 (N-terminal fusion, His-tag), E. coli SoluBL21, HisTrap purified
T1 sequence (Q0DZS9 1-517): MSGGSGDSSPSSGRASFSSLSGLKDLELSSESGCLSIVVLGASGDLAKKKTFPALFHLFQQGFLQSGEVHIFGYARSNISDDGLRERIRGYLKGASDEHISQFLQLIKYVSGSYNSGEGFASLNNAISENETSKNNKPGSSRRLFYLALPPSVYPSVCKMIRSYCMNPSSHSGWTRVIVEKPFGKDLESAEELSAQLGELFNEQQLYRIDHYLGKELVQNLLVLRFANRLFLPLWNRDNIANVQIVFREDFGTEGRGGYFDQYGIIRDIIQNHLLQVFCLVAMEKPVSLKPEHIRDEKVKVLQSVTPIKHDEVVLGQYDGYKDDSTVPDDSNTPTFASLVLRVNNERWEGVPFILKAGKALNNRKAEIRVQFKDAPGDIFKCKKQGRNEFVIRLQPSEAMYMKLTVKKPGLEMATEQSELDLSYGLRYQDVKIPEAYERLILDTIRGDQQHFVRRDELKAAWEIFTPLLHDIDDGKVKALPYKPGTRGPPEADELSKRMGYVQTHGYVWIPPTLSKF

OsG6PDH2 [2] = biological target: T2, OsG6PDH2 (Oryza sativa, UniProt Q7X7I6); assay: inhibition of G6PDH activity; assay type: biochemical; conditions: feedback (product) inhibition
T2 construct: gene Os04g0485300; coding region in pET32 (N-terminal fusion, His-tag), E. coli SoluBL21, HisTrap purified
T2 sequence (Q7X7I6 1-505): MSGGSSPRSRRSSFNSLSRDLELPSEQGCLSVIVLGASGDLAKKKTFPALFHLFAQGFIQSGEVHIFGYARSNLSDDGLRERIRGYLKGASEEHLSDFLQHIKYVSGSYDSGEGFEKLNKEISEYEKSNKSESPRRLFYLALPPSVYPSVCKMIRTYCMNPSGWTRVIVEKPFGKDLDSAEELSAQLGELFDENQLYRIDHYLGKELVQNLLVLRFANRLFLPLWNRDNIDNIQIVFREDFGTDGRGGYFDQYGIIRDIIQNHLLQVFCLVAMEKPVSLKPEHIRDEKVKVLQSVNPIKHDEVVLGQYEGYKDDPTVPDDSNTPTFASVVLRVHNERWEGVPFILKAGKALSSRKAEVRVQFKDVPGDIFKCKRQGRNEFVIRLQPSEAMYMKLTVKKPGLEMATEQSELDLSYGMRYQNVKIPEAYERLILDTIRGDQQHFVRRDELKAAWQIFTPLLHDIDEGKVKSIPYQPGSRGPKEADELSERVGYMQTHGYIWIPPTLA

OsG6PDH1 [3] = biological target: T1, OsG6PDH1; design: Recombinant G6PDH spectrophotometric assay at 340 nm with G6P, NADP+ reduction, 25 °C, pH 7.6; conditions: feedback inhibition, G6P/NADP+ assay; inhibitor; read-out: Ki NADPH
Procedure: (§1) The activity of recombinant rice G6PDHs was measured spectrophotometrically (340nm) at 25 °C by detecting NADP reduction via G6PDH reaction, which is coupled with G6P production, as described by [Wakao and Benning (2005)]. Reaction mixtures with 0.01–10mM G6P contained 0.2M TRIS (pH 7.6), NADP^+ (0.01–10mM), and MgCl2 (5mM). DTT (10mM) was incubated with the reaction mixture for 1h to test its activity. The DNA fragment containing the coding region of OsHXK5, OsHXK6, AlsK, OsG6PDH1, or OsG6PDH2 was subcloned in-frame into the pET32 vector (Novagen), and overexpressed in E. coli SoluBL21 (Genlantis, San Diego, CA, USA) according to the manufacturer’s instructions. The recombinant proteins were purified using a HisTrap HP column (GE Healthcare, Wauwatosa, WI, USA) as per the manufacturer’s instructions and dialysed against 0.2M TRIS-HCl buffer (pH 7.6) containing MgCl2 (5mM). Recombinant proteins of OsG6PDH1 and OsG6PDH2 had enzymatic activity with G6P and NADP^+, and OsG6PDH1 had higher activity based on k cat/K m values (Table 2). […] Neither enzyme used A6P as a substrate (Supplementary Table S3).

OsG6PDH2 [4] = biological target: T2, OsG6PDH2; design: Recombinant G6PDH spectrophotometric assay at 340 nm with G6P, NADP+ reduction, 25 °C, pH 7.6; conditions: feedback inhibition, G6P/NADP+ assay; inhibitor; read-out: Ki NADPH
Procedure: as §1

Ki (OsG6PDH1 [3]): 41.5 µM | Ki (OsG6PDH2 [4]): 30 µM
Compound: NC(=O)C1=CN([C@@H]2O[C@H](COP(=O)(O)OP(=O)(O)OC[C@H]3O[C@@H](n4cnc5c(N)ncnc54)[C@H](OP(=O)(O)O)[C@@H]3O)[C@@H](O)[C@H]2O)C=CC1 [NADPH]
inhibition of G6PDH activity (OsG6PDH1 [1]): OsG6PDH1 and OsG6PDH2 suffered tight feedback inhibition by NADPH | inhibition of G6PDH activity (OsG6PDH2 [2]): OsG6PDH1 and OsG6PDH2 suffered tight feedback inhibition by NADPH
